How the values were obtained:
[1] = system: β2-microglobulin or chemokines; test: Adsorbing ability of immobilized compounds of various log P values; type: binding; conditions: compound immobilized on carrier
Text: In discovering compounds effective for adsorbing substances related to malady in body fluid, in particular, for adsorbing β2-microglobulin or chemokines, compounds having various log P values have been examined in a state of being immobilized.

[2] = octanol-water system, found value; cited from earlier work

| SMILES | adsorbing ability for β2-microglobulin or chemokines [1] | further results |
| --- | --- | --- |
| CCCCCCCCCCCCCCCCN [hexadecylamine] | further enhanced | – |
| CCCCN [n-butylamine] | – | log P [2]: 0.97 |
| CCCCCCCCN [n-octylamine] | enhanced to a great extent | – |
| CCCCCCCCCCCCCCCCCCN [octadecylamine] | – | adsorbing ability for β2-microglobulin or chemokines (guessed) ([1]; guessed and not tested): equivalent to or better than that of hexadecylamine |

Reference: patent US6878269B2, “Device for body fluid purification and system for body fluid purification” (Kaneka Corporation, priority 1996, dated 2005)
